In ChEMBL document CHEMBL5303304, “EUbOPEN Chemogenomics Library - IncuCyte” (2023):

Experiments:
Format in all cases: toxicity, cell-based
[1] = tested on: HEK-293T; experiment: Incucyte cell viability with HEK293T; settings: human, 10 µM, compound concentration 10 uM
[2] = tested on: Fibroblast; experiment: Incucyte cell viability with human fibroblast; settings: 10 µM, compound concentration 10 uM
[3] = tested on: U2OS; experiment: Incucyte cell viability with U2OS; settings: human, 10 µM, compound concentration 10 uM
Also: unitless GR value; below 1 slowed growth and below 0 cell loss.

O=C(CNC(=O)c1ccc(-c2ccccc2)cc1)NC1CCCc2ccccc21 (stereo unspecified)
Growth Rate ([1]; 0 h, replicate number 2): -0.65 | Growth Rate ([1]; 6 h, replicate number 1): 0.23 | Growth Rate ([1]; 6 h, replicate number 2): 0.73 | Growth Rate ([1]; 12 h, replicate number 1): -0.08 | Growth Rate ([1]; 12 h, replicate number 2): 0.41 | Growth Rate ([1]; 18 h, replicate number 1): 0.26 | Growth Rate ([1]; 18 h, replicate number 2): 0.38 | Growth Rate ([1]; 24 h, replicate number 1): 0.39 | Growth Rate ([1]; 24 h, replicate number 2): 0.46 | Growth Rate ([2]; 6 h, replicate number 2): 0.27 | Growth Rate ([2]; 12 h, replicate number 2): 0.26 | Growth Rate ([2]; 18 h, replicate number 2): 0.42 | Growth Rate ([2]; 24 h, replicate number 2): 0.7 | Growth Rate ([3]; 0 h, replicate number 1): 0.77 | Growth Rate ([3]; 6 h, replicate number 1): 0.38 | Growth Rate ([3]; 12 h, replicate number 1): 0.67 | Growth Rate ([3]; 12 h, replicate number 2): 0.9 | Growth Rate ([3]; 18 h, replicate number 1): 0.43 | Growth Rate ([3]; 24 h, replicate number 1): 0.55 | Growth Rate ([3]; 24 h, replicate number 2): 0.93

CCOC(=O)CS(=O)(=O)c1ccc([C@@H](CO)NC(=O)c2cc3c(Cl)c(Cl)c(C)cc3n2C)cc1
Growth Rate ([1]; 0 h, replicate number 2): 0.13 | Growth Rate ([2]; 0 h, replicate number 1): -1 | Growth Rate ([2]; 6 h, replicate number 2): -1 | Growth Rate ([2]; 12 h, replicate number 1): -0.98 | Growth Rate ([2]; 12 h, replicate number 2): -0.95 | Growth Rate ([2]; 18 h, replicate number 1): -0.91 | Growth Rate ([2]; 18 h, replicate number 2): -0.85 | Growth Rate ([2]; 24 h, replicate number 1): -0.81 | Growth Rate ([2]; 24 h, replicate number 2): -0.7 | Growth Rate ([3]; 0 h, replicate number 1): -0.21 | Growth Rate ([3]; 6 h, replicate number 1): -0.2 | Growth Rate ([3]; 6 h, replicate number 2): 1 | Growth Rate ([3]; 12 h, replicate number 1): -0.25 | Growth Rate ([3]; 12 h, replicate number 2): 0.52 | Growth Rate ([3]; 18 h, replicate number 1): -0.31 | Growth Rate ([3]; 18 h, replicate number 2): 0.87 | Growth Rate ([3]; 24 h, replicate number 1): -0.16 | Growth Rate ([3]; 24 h, replicate number 2): 0.97

COc1ccc(N(C(=O)Nc2c(C)cccc2C)c2cc(Nc3ccc(N4CCN(C)CC4)cc3)ncn2)c(OC)c1
Growth Rate ([1]; 0 h, replicate number 2): 1 | Growth Rate ([2]; 0 h, replicate number 2): -0.56 | Growth Rate ([3]; 0 h, replicate number 1): 0.61 | Growth Rate ([3]; 6 h, replicate number 1): 0.85 | Growth Rate ([3]; 6 h, replicate number 2): 0.97 | Growth Rate ([3]; 12 h, replicate number 1): 0.77 | Growth Rate ([3]; 12 h, replicate number 2): 0.57 | Growth Rate ([3]; 18 h, replicate number 1): 0.25 | Growth Rate ([3]; 18 h, replicate number 2): 0.14 | Growth Rate ([3]; 24 h, replicate number 1): -0.25 | Growth Rate ([3]; 24 h, replicate number 2): -0.2

O=C(NCc1ccc(F)cc1)C1CCN(S(=O)(=O)c2cc(Cl)cc(Cl)c2)CC1
Growth Rate ([1]; 0 h, replicate number 2): -0.42 | Growth Rate ([1]; 6 h, replicate number 1): 0.66 | Growth Rate ([1]; 12 h, replicate number 1): 0.95 | Growth Rate ([1]; 18 h, replicate number 1): 0.7 | Growth Rate ([1]; 24 h, replicate number 1): 0.78 | Growth Rate ([2]; 0 h, replicate number 2): 0.31 | Growth Rate ([2]; 6 h, replicate number 1): 0.84 | Growth Rate ([2]; 12 h, replicate number 1): 0.58 | Growth Rate ([2]; 12 h, replicate number 2): 0.3 | Growth Rate ([2]; 18 h, replicate number 1): 0.84 | Growth Rate ([2]; 18 h, replicate number 2): 0.46 | Growth Rate ([2]; 24 h, replicate number 1): 0.76 | Growth Rate ([2]; 24 h, replicate number 2): 0.67 | Growth Rate ([3]; 0 h, replicate number 2): 0.76 | Growth Rate ([3]; 6 h, replicate number 1): 0.81 | Growth Rate ([3]; 6 h, replicate number 2): 0.72 | Growth Rate ([3]; 12 h, replicate number 1): 0.86 | Growth Rate ([3]; 12 h, replicate number 2): 0.98 | Growth Rate ([3]; 18 h, replicate number 1): 0.9 | Growth Rate ([3]; 18 h, replicate number 2): 0.98 | Growth Rate ([3]; 24 h, replicate number 2): 0.98

CN(C)C(=O)Cn1cc(-c2ccc(-c3nnc4ccccn34)cc2)cn1
Growth Rate ([1]; 0 h, replicate number 2): 0.91 | Growth Rate ([1]; 6 h, replicate number 1): 0.81 | Growth Rate ([1]; 12 h, replicate number 1): 0.91 | Growth Rate ([2]; 0 h, replicate number 2): -0.65 | Growth Rate ([2]; 6 h, replicate number 1): 0.9 | Growth Rate ([2]; 12 h, replicate number 2): 0.97 | Growth Rate ([2]; 18 h, replicate number 2): 0.9 | Growth Rate ([2]; 24 h, replicate number 2): 0.99 | Growth Rate ([3]; 0 h, replicate number 1): 0.43 | Growth Rate ([3]; 6 h, replicate number 1): 0.9 | Growth Rate ([3]; 12 h, replicate number 1): 0.76 | Growth Rate ([3]; 12 h, replicate number 2): 0.88 | Growth Rate ([3]; 18 h, replicate number 2): 0.96 | Growth Rate ([3]; 24 h, replicate number 1): 0.67 | Growth Rate ([3]; 24 h, replicate number 2): 0.99

COCCCS(=O)(=O)c1cc(C)c(-c2ccc(F)c3c2CC[C@H]3Oc2ccc3c(c2)OC[C@H]3CC(=O)O)c(C)c1
Growth Rate ([1]; 0 h, replicate number 2): -0.02 | Growth Rate ([1]; 6 h, replicate number 1): 0.78 | Growth Rate ([1]; 12 h, replicate number 1): 0.83 | Growth Rate ([1]; 18 h, replicate number 1): 0.82 | Growth Rate ([1]; 24 h, replicate number 1): 0.81 | Growth Rate ([2]; 0 h, replicate number 2): 0.7 | Growth Rate ([2]; 6 h, replicate number 1): 1 | Growth Rate ([3]; 0 h, replicate number 2): -1 | Growth Rate ([3]; 6 h, replicate number 1): 0.63 | Growth Rate ([3]; 6 h, replicate number 2): 0.65 | Growth Rate ([3]; 12 h, replicate number 2): 0.95 | Growth Rate ([3]; 18 h, replicate number 1): 0.79 | Growth Rate ([3]; 18 h, replicate number 2): 0.88 | Growth Rate ([3]; 24 h, replicate number 2): 0.9

CC[C@@H](C(=O)OC)n1c(=O)c2ccccc2n(Cc2cn(C)c3cccc(C)c23)c1=O
Growth Rate ([1]; 0 h, replicate number 2): -0.42 | Growth Rate ([2]; 0 h, replicate number 1): -1 | Growth Rate ([2]; 6 h, replicate number 1): 0.75 | Growth Rate ([2]; 6 h, replicate number 2): -0.9 | Growth Rate ([2]; 12 h, replicate number 1): 1 | Growth Rate ([2]; 12 h, replicate number 2): 0.49 | Growth Rate ([2]; 18 h, replicate number 1): 0.75 | Growth Rate ([2]; 18 h, replicate number 2): 0.48 | Growth Rate ([3]; 0 h, replicate number 2): 0.16 | Growth Rate ([3]; 12 h, replicate number 2): 0.97 | Growth Rate ([3]; 18 h, replicate number 2): 0.96 | Growth Rate ([3]; 24 h, replicate number 1): 0.92 | Growth Rate ([3]; 24 h, replicate number 2): 0.9

COc1cc(C)c(S(=O)(=O)N(C)CCOCC(=O)N(C)[C@H]2CCC[C@@H](N3CCN(C)CC3)C2)c(C)c1.O=C(O)C(O)C(O)C(=O)O
Growth Rate ([1]; 0 h, replicate number 2): 0.26 | Growth Rate ([2]; 0 h, replicate number 1): -1 | Growth Rate ([2]; 6 h, replicate number 1): 0.87 | Growth Rate ([2]; 6 h, replicate number 2): -0.57 | Growth Rate ([2]; 12 h, replicate number 2): 0.57 | Growth Rate ([2]; 18 h, replicate number 1): 0.93 | Growth Rate ([2]; 18 h, replicate number 2): 0.67 | Growth Rate ([2]; 24 h, replicate number 2): 0.92 | Growth Rate ([3]; 12 h, replicate number 2): 0.86
